Results on 2 compounds are retold here after PMC10350552, “Investigation of the GnRH antagonist degarelix isomerization in biological matrices” (Pharmacology Research & Perspectives, 2023).

Where a SMILES comes first, the peptide text is derived from it. [ ]: non-standard residue; d: D form. The star is where a group is joined. dPhe(4-NHCONH2) = NC(=O)Nc1ccc(C[C@@H](N)C(=O)O)cc1; Dihydroorotyl(S) = O=C1C[C@@H](C(=O)*)NC(=O)N1; dPhe(4-Cl) = N[C@H](Cc1ccc(Cl)cc1)C(=O)O; Phe(4-NH2) = Nc1ccc(C[C@H](N)C(=O)O)cc1; d2Nal = N[C@H](Cc1ccc2ccccc2c1)C(=O)O; Lys(iPr) = CC(C)NCCCC[C@H](N)C(=O)O; X1 = O=C1NC(=O)[C@H](CC(=O)*)N1; d3Pal = N[C@H](Cc1cccnc1)C(=O)O

A short description of data set [1]: Stability in 4.5% human serum albumin (HSA) solution without warfarin. In kind it is in vitro ADME. Conditions: 37°C, 2000 ng/mL, up to 48 h. The text has this: (§1) The solutions were shaken and centrifuged. […] All the experiments were repeated three times.
Data set [2] in a line: Stability in HSA solution with warfarin. In kind it is in vitro ADME, human. To be noted: 37°C, 2000 ng/mL, up to 48 h.
From the text: as §1

The next data set can be described thus: in vitro. Conditions: male, human, plasma, pH 7.8.
In data set [3] the test system is human cytochrome P450 system. Conditions: cited from earlier work.
For data set [4] the following is noted: in vivo; cited from earlier work.
Data set [5] concerns human serum albumin (HSA). Conditions: cited from earlier work. The text has this:
After its approval by FDA in 2008, degarelix became the most widely used GnRH antagonist in patients with advanced prostate cancer.[17] The advantages of degarelix are its high affinity to the GnRH receptor, increased hydrophilicity, and decreased propensity to form gels. As a result, degarelix has better bioavailability than the previous GnRH antagonists. These improved characteristics are related to the presence of additional 4‐[(aminocarbonyl)amino]‐phenylalanine [Aph(Cbm)] and 4‐[(dihydroorotyl)amino]‐phenylalanine [Aph(Hor)] moieties, which afford multiple hydrogen‐bonding sites and permi ...

Procedure for in vitro: Degarelix or 5‐Hyd‐degarelix test solutions (10 μL of 180 μg/mL degarelix or 5‐Aph(Hyd)‐degarelix in 20% acetonitrile) were each mixed with 890 μL of human plasma, Dulbecco buffer (5 mM NaH2PO4, 20 mM Na2HPO4, 5 mM KCl, 120 mM NaCl, adjusted to pH 7.4 with NaOH), 4.5% human serum albumin solution (HSA solution), and human serum albumin solution with 0.21 mg/mL warfarin: 3960 μL HSA solution +40 μL warfarin stock solution (21 mg warfarin in 1 mL water)to a final concentration of 2000 ng/mL of each analyte and 0.2% of acetonitrile. […] The samples were then diluted with 10 μL of the solution of 0.1% of formic acid in 20% acetonitrile and 70 μL of acetonitrile. The solutions were shaken and centrifuged. To 50 μL of the supernatant, 20 μL of water and 0.2% of formic acid were added and the solution was used for HPLC analysis. All the experiments were repeated three times.
The ANALYST software was used to integrate all peaks automatically by use of the IntelliQuan algorithm and to calculate the calibration curves of degarelix and 5‐Aph(Hyd)‐degarelix by linear regression with a weighting of 1/x ^2. The parameters for peak integrations were adapted for all samples in each analytical batch. The ANALYST software was used to calculate the concentrations of the test and QC samples based on the corresponding calibration curves.

With `CC(=O)N[C@H](Cc1ccc2ccccc2c1)C(=O)N[C@H](Cc1ccc(Cl)cc1)C(=O)N[C@H](Cc1cccnc1)C(=O)N[C@@H](CO)C(=O)N[C@@H](Cc1ccc(NC(=O)C[C@@H]2NC(=O)NC2=O)cc1)C(=O)N[C@H](Cc1ccc(NC(N)=O)cc1)C(=O)N[C@@H](CC(C)C)C(=O)N[C@@H](CCCCNC(C)C)C(=O)N1CCC[C@H]1C(=O)N[C@H](C)C(N)=O` [5‐Aph(Hyd)‐degarelix] (Ac-[d2Nal][dPhe(4-Cl)][d3Pal]S[Phe(4-NH2)](X1)[dPhe(4-NHCONH2)]L[Lys(iPr)]P[dA]-NH2), the “Change in the 5-Aph(Hyd)-degarelix content” value in data set [1] (5-Aph(Hyd)-degarelix in 4.5% HSA solution without warfarin) is given as “we did not see any change”. For the same compound, the “Formation of 5-Aph(Hyd)-degarelix from degarelix” value in data set [1] (degarelix in 4.5% HSA solution without warfarin, HPLC-MS/MS) was “No 5‐Aph(Hyd)‐degarelix was observed”. The “Change in the 5-Aph(Hyd)-degarelix content” value in data set [2] (5-Aph(Hyd)-degarelix in HSA solution with warfarin) was “we did not see any change”. For the same compound, the “Formation of 5-Aph(Hyd)-degarelix from degarelix” value in data set [2] (degarelix in 4.5% HSA solution with 0.21 mg/mL warfarin (equimolar to albumin), HPLC-MS/MS) is “No 5‐Aph(Hyd)‐degarelix was observed”. In addition, in the data set “in vitro”, the amount remaining at 8 h, 2000 ng/mL turned out to be 103%; the share remaining at 24 h, 2000 ng/mL came out at 93%; the share remaining at 32 h, 2000 ng/mL turned out to be 91%; the fraction remaining at 48 h, 2000 ng/mL was 80%.
On to `CC(=O)N[C@H](Cc1ccc2ccccc2c1)C(=O)N[C@H](Cc1ccc(Cl)cc1)C(=O)N[C@H](Cc1cccnc1)C(=O)N[C@@H](CO)C(=O)N[C@@H](Cc1ccc(NC(=O)[C@@H]2CC(=O)NC(=O)N2)cc1)C(=O)N[C@H](Cc1ccc(NC(N)=O)cc1)C(=O)N[C@@H](CC(C)C)C(=O)N[C@@H](CCCCNC(C)C)C(=O)N1CCC[C@H]1C(=O)N[C@H](C)C(N)=O` [degarelix] (Ac-[d2Nal][dPhe(4-Cl)][d3Pal]S[Phe(4-NH2)](Dihydroorotyl(S))[dPhe(4-NHCONH2)]L[Lys(iPr)]P[dA]-NH2), for which, in the data set “in vitro”, the share remaining at 8 h, 2000 ng/mL was found to be 104%; the share remaining at 24 h, 2000 ng/mL is 92%; the share remaining at 32 h, 2000 ng/mL was 91%; the share remaining at 48 h, 2000 ng/mL was determined as 74%. Further, the “Substrate for the human cytochrome P450 system” value in data set [3] is reported as “not a substrate”. The “Time to reach the maximum concentration in the blood” value in data set [4] was 37 to 42 h. Besides, in data set [5], the “Binding to human serum albumin (HSA)” value is on record as 76.3%.
